Calls of active or inactive are those of the source. No cut-off for these calls is given here.
Tests used:
Osteoblast [1] = assay: Increase in ALP activity in mouse primary osteoblasts at 20 uM relative to control; format: functional
Osteoblast [2] = assay: Increase in ALP activity in mouse primary osteoblasts at 10 uM relative to control; format: functional
Osteoblast [3] = assay: Increase in ALP activity in mouse primary osteoblasts at 1 uM relative to control; format: functional
Osteoblast [4] = assay: Cytotoxicity against mouse primary osteoblasts at 20 uM by MTT assay; format: functional, cell-based
Osteoblast [5] = assay: Increase in collagen synthesis in mouse primary osteoblasts; format: functional, cell-based
Osteoblast [6] = assay: Effect on mineralization in mouse primary osteoblasts by measuring calcium deposition; format: functional, cell-based
Osteoblast [7] = assay: Increase in collagen synthesis in mouse primary osteoblasts at 10 uM relative to control; format: functional

## COc1cc(O)c2c(=O)cc(-c3ccc(OC)c(-c4c(OC)cc(O)c5c(=O)cc(-c6ccc(O)cc6)oc45)c3)oc2c1
Osteoblast [1]
  Activity: 122%
Osteoblast [2]
  Activity: 129.7%
Osteoblast [3]
  Activity: 108.4%

## COc1ccc(-c2cc(=O)c3c(O)cc(O)cc3o2)cc1-c1c(OC)cc(O)c2c(=O)cc(-c3ccc(O)cc3)oc12
Osteoblast [4]
  Activity: Active
Osteoblast [1]
  Activity: 73.5%
Osteoblast [2]
  Activity: 113%
Osteoblast [3]
  Activity: 101.1%

## COc1ccc(-c2cc(=O)c3c(O)cc(OC)c(-c4cc(-c5cc(=O)c6c(O)cc(OC)cc6o5)ccc4OC)c3o2)cc1
Osteoblast [1]
  Activity: 149.5%
Osteoblast [2]
  Activity: 147.3%
Osteoblast [5]
  Activity: Active
Osteoblast [6]
  Activity: Active
Osteoblast [3]
  Activity: 105.1%

## COc1ccc(-c2cc(=O)c3c(O)cc(O)cc3o2)cc1-c1c(O)cc(O)c2c(=O)cc(-c3ccc(O)cc3)oc12 [BILOBETIN]
Osteoblast [1]
  Activity: 130.6%
Osteoblast [2]
  Activity: 131.9%
Osteoblast [6]
  Activity: Active
Osteoblast [3]
  Activity: 100.9%

## O=c1c(-c2ccc(O)cc2)coc2cc(O)ccc12 [DAIDZEIN]
Osteoblast [1]
  Activity: 128.1%
Osteoblast [2]
  Activity: 132.8%
Osteoblast [3]
  Activity: 107.8%

## COc1cc(O)c2c(=O)cc(-c3ccc(OC)c(-c4c(O)cc(O)c5c(=O)cc(-c6ccc(O)cc6)oc45)c3)oc2c1 [GINKGETIN]
Osteoblast [4]
  Activity: Active
Osteoblast [1]
  Activity: 39.9%
Osteoblast [2]
  Activity: 69.3%
Osteoblast [3]
  Activity: 116.8%

## COc1ccc(-c2cc(=O)c3c(O)cc(O)c(-c4cc(-c5cc(=O)c6c(O)cc(OC)cc6o5)ccc4OC)c3o2)cc1 [SCIADOPITISIN]
Osteoblast [1]
  Activity: 153%
Osteoblast [2]
  Activity: 149%
Osteoblast [7]
  Activity: 180%
Osteoblast [6]
  Activity: Active
Osteoblast [3]
  Activity: 121.1%

— ChEMBL document CHEMBL1147800, “Osteoblast differentiation stimulating activity of biflavonoids from Cephalotaxus koreana” (2006)
